Reference: ChEMBL document CHEMBL1132673, “Preparation and immunosuppressive activity of 32-(O)-acylated and 32-(O)-thioacylated analogues of ascomycin” (1999)

How the values were obtained:
[1] = target: Peptidyl-prolyl cis-trans isomerase FKBP1A (Homo sapiens) (UniProt P62942); assay: Immunosuppressive activity in FK506 binding protein 12 binding assay as inhibitory concentration (rIC50) relative to FK506 IC50 (1.2 nM)
[2] = In vitro immunosuppressive activity measured in the interleukin-2 receptor gene assay (IL-2 RGA) in mitogen-stimulated human T-cell line; relative to FK506
[3] = organism: Mus musculus; assay: In vitro immunosuppressive activity measured in the mouse mixed lymphocyte reaction (MLR) expressed as relative inhibitory concentration (rIC50) relative to FK506 IC50 (0.3 nM); format: functional

Chain of Peptidyl-prolyl cis-trans isomerase FKBP1A (Homo sapiens) (P62942 whole entry): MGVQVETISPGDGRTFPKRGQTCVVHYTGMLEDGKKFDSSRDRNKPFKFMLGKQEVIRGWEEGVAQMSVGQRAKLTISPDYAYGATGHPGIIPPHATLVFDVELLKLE

rIC50 [1]	rIC50 [2]	Structure (SMILES)	rIC50 [3]
6.3	3.4	CC[C@@H]1/C=C(\C)C[C@H](C)C[C@H](OC)[C@H]2O[C@@](O)(C(=O)C(=O)N3CCCC[C@H]3C(=O)O[C@H](/C(C)=C/[C@@H]3CC[C@@H](OC(=S)NC(=O)c4ccccc4)[C@H](OC)C3)[C@H](C)[C@@H](O)CC1=O)[C@H](C)C[C@@H]2OC	11
0.9	1.7	CC[C@@H]1/C=C(\C)C[C@H](C)C[C@H](OC)[C@H]2O[C@@](O)(C(=O)C(=O)N3CCCC[C@H]3C(=O)O[C@H](/C(C)=C/[C@@H]3CC[C@@H](O)[C@H](OC)C3)[C@H](C)[C@@H](O)CC1=O)[C@H](C)C[C@@H]2OC [ASCOMYCIN]	1.9
1	1	C=CC[C@@H]1/C=C(\C)C[C@H](C)C[C@H](OC)[C@H]2O[C@@](O)(C(=O)C(=O)N3CCCC[C@H]3C(=O)O[C@H](/C(C)=C/[C@@H]3CC[C@@H](O)[C@H](OC)C3)[C@H](C)[C@@H](O)CC1=O)[C@H](C)C[C@@H]2OC [TACROLIMUS ANHYDROUS]	1
1.5	0.7	CC[C@@H]1/C=C(\C)C[C@H](C)C[C@H](OC)[C@H]2O[C@@](O)(C(=O)C(=O)N3CCCC[C@H]3C(=O)O[C@H](/C(C)=C/[C@@H]3CC[C@@H](OC(=O)NNc4ccccc4)[C@H](OC)C3)[C@H](C)[C@@H](O)CC1=O)[C@H](C)C[C@@H]2OC	2.5
7.3	9	CC[C@@H]1/C=C(\C)C[C@H](C)C[C@H](OC)[C@H]2O[C@@](O)(C(=O)C(=O)N3CCCC[C@H]3C(=O)O[C@H](/C(C)=C/[C@@H]3CC[C@@H](OC(=S)NC(=O)c4ccc(C(=O)OC)cc4)[C@H](OC)C3)[C@H](C)[C@@H](O)CC1=O)[C@H](C)C[C@@H]2OC	8.4
6.6	6.5	CC[C@@H]1/C=C(\C)C[C@H](C)C[C@H](OC)[C@H]2O[C@@](O)(C(=O)C(=O)N3CCCC[C@H]3C(=O)O[C@H](/C(C)=C/[C@@H]3CC[C@@H](OC(=S)NC(=O)c4ccc5ccccc5c4)[C@H](OC)C3)[C@H](C)[C@@H](O)CC1=O)[C@H](C)C[C@@H]2OC	15
3.4	3.5	CC[C@@H]1/C=C(\C)C[C@H](C)C[C@H](OC)[C@H]2O[C@@](O)(C(=O)C(=O)N3CCCC[C@H]3C(=O)O[C@H](/C(C)=C/[C@@H]3CC[C@@H](OC(=S)NC(=O)c4ccco4)[C@H](OC)C3)[C@H](C)[C@@H](O)CC1=O)[C@H](C)C[C@@H]2OC	7.6
1.3	1.2	CC[C@@H]1/C=C(\C)C[C@H](C)C[C@H](OC)[C@H]2O[C@@](O)(C(=O)C(=O)N3CCCC[C@H]3C(=O)O[C@H](/C(C)=C/[C@@H]3CC[C@@H](OC(=O)NC(=O)c4ccccc4)[C@H](OC)C3)[C@H](C)[C@@H](O)CC1=O)[C@H](C)C[C@@H]2OC	2.9
0.9	12	CC[C@@H]1/C=C(\C)C[C@H](C)C[C@H](OC)[C@H]2O[C@@](O)(C(=O)C(=O)N3CCCC[C@H]3C(=O)O[C@H](/C(C)=C/[C@@H]3CC[C@@H](OC(=S)NC(=O)C[C@@H]4OC(C)(C)OC4=O)[C@H](OC)C3)[C@H](C)[C@@H](O)CC1=O)[C@H](C)C[C@@H]2OC	12
2.7	6.9	CC[C@@H]1/C=C(\C)C[C@H](C)C[C@H](OC)[C@H]2O[C@@](O)(C(=O)C(=O)N3CCCC[C@H]3C(=O)O[C@H](/C(C)=C/[C@@H]3CC[C@@H](OC(=S)N(C)C(=O)CCC(=O)OC)[C@H](OC)C3)[C@H](C)[C@@H](O)CC1=O)[C@H](C)C[C@@H]2OC	36
1.6	4.6	CC[C@@H]1/C=C(\C)C[C@H](C)C[C@H](OC)[C@H]2O[C@@](O)(C(=O)C(=O)N3CCCC[C@H]3C(=O)O[C@H](/C(C)=C/[C@@H]3CC[C@@H](OC(=S)NC(=O)CCC(=O)OC)[C@H](OC)C3)[C@H](C)[C@@H](O)CC1=O)[C@H](C)C[C@@H]2OC	19
